The structures appear in SMILES notation.

This assay deals with Plasmodium falciparum. Briefly: GSK_TCMDC: Inhibition of Plasmodium falciparum 3D7 in whole erythrocytes, using parasite LDH activity as an index of growth. The note with it: Plasmodium falciparum, 3D7. The class given is functional, organism-based.
As for `CCN(CC)CCN(Cc1ccc(-c2ccc(C(F)(F)F)cc2)cc1)C(=O)Cn1c(CCc2cccc(F)c2F)nc(=O)c2ccccc21`, the XC50 turned out to be 671 nM. The value for `CCN1CCC(N(Cc2ccc(-c3ccc(C(F)(F)F)cc3)cc2)C(=O)Cn2c(SCc3cccc(F)c3F)cc(=O)c3ccccc32)C1` (stereo unspecified) was 882 nM. The same measure for `COc1cc(Cc2cnc(N)nc2N)cc(OCCCCCCC(=O)O)c1OC`: 937 nM; for `Cc1[nH]c(C)c(C(F)(F)F)c(=O)c1-c1ccc(Oc2ccc(OC(F)(F)F)cc2)cc1`: 173 nM; for `COc1cccc(CC(=O)N2CCC(n3c(C)nc4ccc(F)cc43)CC2)c1`: 906 nM. Regarding `COc1ccc(C(=O)N2CCc3cc4nccc(N5CCN6CCC[C@H]6C5)c4cc32)cc1`, the XC50 is 948 nM.

As for `CCC(O)(C#Cc1c(C)nc(N)nc1N)CC`, the XC50 came out at 639 nM. The value for `COc1cc(CCOc2c(C)nc(N)nc2N)cc(OC)c1OC` was 23.8 nM; that for `Cc1cccc(Oc2cccc3[nH]nc(N)c23)c1` was 1040 nM. The same measure for `CCN1CCN(c2cc(C)c3cc(NC(=O)c4cccc(OC)c4)ccc3n2)CC1`: 799 nM; for `Cc1ccc(O)cc1Nc1ccnc2cc(-c3nccs3)ccc12`: 879 nM; for `CCc1ccc(CC(C)NCC(O)c2ccccc2)cc1` (stereo unspecified): 887 nM.

For `COc1ccc(S(=O)(=O)N2CCCC(C)C2)cc1N1CCN(C(=O)c2ccc([N+](=O)[O-])o2)CC1` (stereo unspecified), the XC50 came to 1250 nM. `COc1cc(Nc2nccc(NCC(O)c3ccc(C(F)(F)F)cc3)n2)cc(OC)c1OC` (stereo unspecified) gave an XC50 of 920 nM.

On to `O=C(Nc1cccc(C(F)(F)F)c1)c1ccc(S(=O)(=O)NC2CCN(CC3CCCCC3)C2)cc1` (stereo unspecified), for which the XC50 is 789 nM. Compound `CN(C(=O)Nc1ccc(C(F)(F)F)cc1)C1CCN(CCCCCNC(=O)/C=C/c2ccc(Cl)c(Cl)c2)CC1` returned an XC50 of 330 nM. The same measure for `Cc1ccc(NC(=O)c2ccc(C(=O)NC3CCN(CC4CCCCC4)CC3)cc2)cc1`: 903 nM; for `Cc1cc(N(C)C2CCN(CC3CCCCC3)C2)nc(Nc2ccc(Br)cc2)n1` (stereo unspecified): 703 nM; for `COc1ccc(NC(=O)N2CCN(CCCCCNC(=O)/C=C/c3ccc(C(F)(F)F)cc3)CC2)cc1Cl`: 859 nM. Compound `N#Cc1ccc(N[C@@H](CC2CCCCC2)C(=O)NCc2cc(Cl)cc(Cl)c2)c2ccccc12` had an XC50 of 1100 nM. Turning to `COC(=O)c1cccc(CNCc2ccc(-c3cccc(-c4nc5ccccc5[nH]4)c3)cc2)c1`, the XC50 amounted to 261 nM. The value for `Cc1ccc(C(=O)Cn2nc(-c3ccc(C)c(S(=O)(=O)N4CCCCC4)c3)ccc2=O)cc1` was 333 nM; that for `Cc1cccc(-c2cc3cc(Nc4ccnc5cc(-c6nccs6)ccc45)ccc3[nH]2)c1` was 174 nM. The value for `Cc1cccc2nc(-c3ccc(-c4ccc(CNCc5ccccc5)cc4)cc3)[nH]c12` was 508 nM; that for `COc1ccc(Nc2ncc3c(-c4cccc(NC(=O)c5ccc(N)cc5)c4)c[nH]c3n2)cc1OC` was 975 nM; that for `NC(=O)COc1c(C2CCN(CCCCNC(=O)c3ccc(-c4ccc(Cl)cc4)c(O)c3)CC2)ccc2c1CCCC2` was 706 nM. The value for `CCc1ccc(OCc2ccccc2C(=O)Nc2ccc3nc(C)cc(N)c3c2)cc1` was 203 nM. The compound `Cc1cc(Nc2nc(NCc3cccnc3)nc3ccccc23)n[nH]1` registered an XC50 of 852 nM. The same measure for `Cn1c(Nc2nnc(C3CC3)s2)nc2cc(Nc3ccnc(Nc4cccc(CS(C)(=O)=O)c4)n3)ccc21`: 681 nM. The same measure for `CCOC(=O)c1nc(-c2cc(Cl)nc(Cl)c2)[nH]c1NC(=S)NCCCN1CCOCC1`: 925 nM.

`O=C(Nc1ccc(Cl)cc1)c1ccc(CN2CCCN(Cc3cccc(F)c3)CC2)cc1` displayed an XC50 of 1030 nM.

As to `COc1ccc(C=Cc2cc(=N)c3ccccc3[nH]2)cc1Br`, the XC50 was 713 nM. The value for `CCn1cc(-c2nc(-c3cc(OC)cc(OC)c3)no2)c(=O)c2ccccc21` was 338 nM; that for `O=C(NCc1ccc(Cl)c(Cl)c1)c1ccc(-c2nc3ccc(Cl)cc3[nH]2)cc1` was 905 nM.

On to `COc1ccc(-c2ccc(NC(=O)c3cccc(Cl)c3)cc2)cc1CNC(C)C`, for which the XC50 was 466 nM. The value for `COc1ccc2nc(-c3cccc(C)n3)nc(Nc3ccncc3)c2c1` was 669 nM. With `O=C(NCCCN1CCOCC1)c1ccc(-c2cccc(NC(=O)c3ccc(Cl)c(Cl)c3)c2)cc1`, the XC50 was determined as 683 nM.

`Cc1nc(-c2ccc(C#N)cc2)sc1C(=O)NCCCCN1CCC(c2ccc3c(c2OCCO)CCCC3)CC1` displayed an XC50 of 850 nM. The same measure for `Nc1ccc(-c2nc3c(ccc4ccccc43)[nH]2)cc1`: 941 nM; for `N#Cc1ccc2c(c1)CCN(CCC1CCC(NC(=O)/C=C/c3cccc4ccccc34)CC1)CC2` (stereo unspecified): 729 nM. The value for `CC(C)Cn1cc(C2CCN(CCN3CCC(CNC(=O)c4ccc(NC(=O)c5cc(Cl)cc(Cl)c5)cc4)CC3)CC2)c2ccccc21` was 693 nM; that for `Cn1nc(-c2cccc(CNCCc3cccs3)c2)c2cnc(NC3CCCC3)nc21` was 1890 nM. The value for `CCCC1N=C(N)N=C(N)N1c1ccc(OC)cc1` (stereo unspecified) was 234 nM; that for `O=C(Nc1ccc(-c2ccccc2)cc1)Nc1cccc(Cn2nc(Cl)c(N3CCNCC3)cc2=O)c1` was 369 nM. In turn, `CCn1cc(C=C2Oc3c(ccc(O)c3CN3CCCCC3)C2=O)c2cc(OC)ccc21` yielded an XC50 of 521 nM. The value for `COC(=O)c1ccc(CN2CCC(N(Cc3cccc(Oc4ccccc4)c3)S(=O)(=O)c3ccc(NC(C)=O)cc3)CC2)cc1` was 1050 nM; that for `CCC1(C)CC(CCNCc2ccccc2O)(c2ccc(C)cc2)CCO1` (stereo unspecified) was 38.8 nM.

The compound `O=C(Nc1cccc(-c2ccc(-c3nc4cc(C(F)(F)F)ccc4[nH]3)cc2)c1)c1ccncc1` gave an XC50 of 337 nM. The same measure for `N#Cc1cccc(NC(=O)C2=C(CCc3ccc4c(c3)OCO4)NC(=O)NC2c2cccc(C#N)c2)c1` (stereo unspecified): 834 nM; for `CC(=O)Nc1ccc(CN2CCC(N(C)c3ccc(NC(=O)c4cccc(C)c4)cc3)CC2)cc1`: 986 nM. `COC(=O)C1=CNC=C(C(=O)OC)C1c1ccc(Cl)c([N+](=O)[O-])c1`: the XC50 came to 676 nM. The value for `Cc1nc(C)c(-c2ccc(-c3ccc(F)cc3)cc2)c(O)c1Cl` was 655 nM; that for `CCOC(=O)c1ccc(N(CCCN(CCCN(c2ccc(C(=O)OCC)cc2)S(=O)(=O)c2ccc(C)cc2)CCc2ccc(O)cc2)S(=O)(=O)c2ccc(C)cc2)cc1` was 1050 nM; that for `Nc1c(Cl)cc(C(O)CNCCCCCCOCCC=C2CCOCC2)cc1Cl` (stereo unspecified) was 634 nM. The value for `CCNc1cc(C)nc(Nc2ccc(F)cc2)n1` was 798 nM. The same measure for `COc1ccc2nc(Nc3nc4cnccc4[nH]3)sc2c1`: 1130 nM; for `CC(=O)Nc1nc(C(=O)Nc2cccc(-c3ccc4c(cnn4CC4CC4)c3)c2)cs1`: 735 nM.

As to `COc1cccc(C(=O)C2CC2CN2CC=C(c3c(C)[nH]c4ccccc34)CC2)c1` (stereo unspecified), the XC50 was determined as 710 nM. The same measure for `Cc1cccc(CNc2nc(C)cc(N[C@@H](CC(C)C)C(=O)NCCOc3ccccc3)n2)c1`: 1080 nM; for `O=C(NCc1cc2c(cc1Cl)OCO2)c1ccc(CNC2CCN(Cc3ccccc3)CC2)cc1`: 831 nM; for `NCC1CCCN1Cc1ccc(-c2cccc(-c3nc4cc(F)ccc4[nH]3)c2)cc1` (stereo unspecified): 751 nM. Take `N#Cc1ccc2c(c1)CCN(CCC1CCC(NC(=O)c3ccc(-c4ccccc4)s3)CC1)CC2` (stereo unspecified): the XC50 is 684 nM.

`Cc1nc(N2CCC(C)CC2)c2c3c(sc2n1)CCCC3` came in with an XC50 of 1060 nM. `COc1cc(O)c2c(=O)c(OC)c(-c3cccc(Cl)c3OCC(=O)O)oc2c1OC` gave an XC50 of 586 nM. The value for `O=C(/C=C/c1ccccc1)N1CCOC(CCN2CCC(c3ccccc3)CC2)(c2ccc(Cl)c(Cl)c2)C1` (stereo unspecified) was 516 nM. On to `COc1ccc(OC)c(NC(=O)C2c3ccccc3C(=O)N(CC(C)C)C2c2cccs2)c1` (stereo unspecified), for which the XC50 amounted to 805 nM. The value for `CC(=O)c1ccc(N2C(=O)C3C(Cc4ccc(OC(C)(C)C)cc4)NC4(C(=O)N(Cc5ccc(C(C)(C)C)cc5)c5ccccc54)C3C2=O)cc1` (stereo unspecified) was 1280 nM. `C=CCc1cc(Cc2cnc(N)nc2N)c2ccc(C)nc2c1O` showed an XC50 of 1040 nM.

Compound `N#Cc1ccc(NC(=O)Nc2ccc(OC(F)(F)F)cc2)cc1` had an XC50 of 819 nM. In the case of `Nc1nc(N)c2nc(C3CC=CCC3)c(N)nc2n1` (stereo unspecified), the XC50 was found to be 162 nM.

In turn, `O=C(NC1CCCCCC1)C1CCCN(C(=O)c2ccc(O)c(-c3ccc(Cl)c(Cl)c3)c2)C1` (stereo unspecified) showed an XC50 of 763 nM. Compound `COc1ccccc1CCNc1nc(C)cc(N[C@@H](Cc2ccccc2)C(=O)NCc2cccs2)n1` came in with an XC50 of 634 nM. The same measure for `COc1ccc2c(NN=Cc3cccc(F)c3)ccnc2c1`: 207 nM; for `O=C(NC1CCC(CN2CCC(c3c[nH]c4ccccc34)CC2)CC1)c1ccc(-c2cc(C(F)(F)F)ccc2Cl)o1` (stereo unspecified): 714 nM. The value for `CN1CCC[C@@H](Oc2cc3c(cc2Br)CCN3C(=O)Nc2ccc(-c3ccncc3)c(Cl)c2)C1` was 624 nM; that for `CC(O)CNc1nc2ccccc2n1CC(=O)Nc1cccc(C(=O)Nc2cccc(C(F)(F)F)c2)c1` (stereo unspecified) was 103 nM. As for `COC(=O)c1ccc(CC(C)NCC(O)c2cccc(Cl)c2Cl)cc1` (stereo unspecified), the XC50 was determined as 548 nM. The compound `Cn1nc(-c2ccc(NC(=O)Nc3cc(C(F)(F)F)ccc3F)c(F)c2)c2cnc(NCCCN3CCOCC3)nc21` had an XC50 of 604 nM.

As for `O=C1C(c2ccccc2)=C(Nc2cc(Cl)cc(Cl)c2)c2ccccc21`, the XC50 was found to be 372 nM.

Turning to `Cn1cnc(CCNC(=O)c2ccc(-c3ccc(-c4nc5cc(F)ccc5[nH]4)cc3)cc2)c1`, the XC50 amounted to 866 nM.

`O=C(/C=C/c1cccc(C(F)(F)F)c1)NCCCCCN1CCN(C(=O)Nc2ccc(Cl)c(Cl)c2)CC1` yielded an XC50 of 935 nM.

As for `CNC(=O)c1ccccc1Nc1cc(Nc2cc(OC)ccn2)ncc1Cl`, the XC50 was 930 nM. The same measure for `COc1ccc2nccc([C@@H](O)CN3CCC(NCc4cc5c(F)ccc(F)c5[nH]4)CC3)c2n1`: 699 nM; for `CC(C)Oc1cc(-c2ccc(S(C)(=O)=O)cc2)nc(N(Cc2cccc(F)c2F)Cc2cccc(F)c2F)n1`: 121 nM. The value for `Clc1cc(Nc2ccnc3ccc(Br)cc23)ccc1Oc1ccc(Cl)c2ccccc12` was 634 nM; that for `O=C(/C=C/c1ccc(Cl)c(Cl)c1)NCCCCCN1CCC(CCNC(=O)/C=C/c2ccccc2F)CC1` was 871 nM.
